# Reference: publication PMC6918025, “Genomewide and Enzymatic Analysis Reveals Efficient D-Galacturonic Acid Metabolism in the Basidiomycete Yeast Rhodosporidium toruloides” (mSystems, 2019)
# Experiments:
# Format in all cases: biochemical, Rhodotorula toruloides
# [1] = test system: RTO4_11882 (D-galUA reductase, GAR1 homolog); assay: NADPH loss at […] nm; details: 0.3 mM NADPH, pH 7, 30°C
# [2] = test system: T1, RTO4_12062 (L-galactonate dehydratase); assay: semicarbazide assay at […] nm; details: 5 mM MgCl2, 50 mM sodium phosphate pH 7.0; tag removed
# T1 construct: gene GaaB; full-length, N-terminal HIS6-TEV tag removed by TEV protease, expressed in E. coli Rosetta, IMAC
# [3] = test system: T2, RTO4_9774 (L-glyceraldehyde reductase); assay: NADPH loss at […] nm; details: 0.3 mM NADPH, pH 7, 30°C
# T2 construct: gene GaaD
compound,measurement,setting,value
O=C(O)[C@H]1OC(O)[C@H](O)[C@@H](O)[C@H]1O (stereo partly drawn) [D-galUA],Km,[1],~7 mM
O=C(O)[C@@H](O)[C@H](O)[C@H](O)[C@@H](O)CO [L-galactonate],Km,[2],5.8 mM
O=C[C@@H](O)CO [L-glyceraldehyde],Km,[3],0.9 mM
